# Values of other authors, collected in patent US20080139517A1, “Methods of treating age associated memory impairment (AAMI), mild cognitive impairment (MCI), and dementias with cell cycle inhibitors” (priority 2002, published 2008).
# Assays:
# [1] = test system: ERK-1 and ERK-2 (p44 and p42 MAPK); settings: in response to hypoxia/reoxygenation injury
# leukemia cells = settings: G1 phase
# cdk4 = cdk4 (Homo sapiens, UniProt P11802)
# moderate to severe AD = settings: in vivo
# vascular dementia = settings: in vivo
# human cancer cells = settings: demonstrated in non-small-cell lung cancer cells
# [2] = children
# PC12 cells = settings: presence of nerve growth factor
# Chain of cdk4 (P11802 whole entry, species assumed): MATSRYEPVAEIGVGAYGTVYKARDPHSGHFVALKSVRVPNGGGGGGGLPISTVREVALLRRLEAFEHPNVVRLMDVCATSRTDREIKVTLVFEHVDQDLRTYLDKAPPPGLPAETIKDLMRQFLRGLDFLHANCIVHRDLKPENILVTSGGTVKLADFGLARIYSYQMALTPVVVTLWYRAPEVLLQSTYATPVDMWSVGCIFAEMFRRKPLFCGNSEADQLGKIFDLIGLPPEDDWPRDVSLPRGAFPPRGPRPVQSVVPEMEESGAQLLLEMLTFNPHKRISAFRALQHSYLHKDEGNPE
# Chain of cdk4 (P24385 whole entry partner, species assumed): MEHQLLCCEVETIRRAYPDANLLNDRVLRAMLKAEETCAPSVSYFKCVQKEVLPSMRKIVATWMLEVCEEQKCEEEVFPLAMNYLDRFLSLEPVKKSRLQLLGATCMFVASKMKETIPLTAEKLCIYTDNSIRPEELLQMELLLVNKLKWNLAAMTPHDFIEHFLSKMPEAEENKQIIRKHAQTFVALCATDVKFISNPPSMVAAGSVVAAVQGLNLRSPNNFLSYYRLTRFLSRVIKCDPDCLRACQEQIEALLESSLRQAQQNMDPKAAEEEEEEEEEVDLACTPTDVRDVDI
smiles,measurement,setting,value
"CC(=O)Oc1ccccc1C(=O)O [Aspirin, Acetylsalicylic acid]",ERK-1 and ERK-2 (p44 and p42 MAPK) activation,[1],inhibit
"NS(=O)(=O)c1ccc(S(=O)(=O)Nc2cccc3c(Cl)c[nH]c23)cc1 [E7070, N-(3-chloro-7-indolyl)-1,4-benzenedisulfonamide]",cell cycle progression of leukemia cells,leukemia cells,block
O=C1c2ccccc2-[n+]2ccc3c([nH]c4ccccc43)c21 [Fascaplysin],cdk4 inhibition,cdk4,specifically inhibit
C[C@]12N[C@H](Cc3ccccc31)c1ccccc12 [MK801],excitotoxic neuronal death,neuronal death,blocks
CC12CC3CC(C)(C1)CC(N)(C3)C2 [Memantine],treatment of moderate to severe AD,moderate to severe AD,useful
same,treatment of vascular dementia,vascular dementia,useful
Cn1cncc1[C@@](N)(c1ccc(Cl)cc1)c1ccc2c(c1)c(-c1cccc(Cl)c1)cc(=O)n2C [R115777],p21 ras activation,p21 ras,prevent
NC(=O)N1CCC(CC(=O)N2CCC([C@H]3c4ncc(Br)cc4CCc4cc(Cl)cc(Br)c43)CC2)CC1 [SCH66336],p21 ras activation,p21 ras,prevent
"CCCC(CCC)C(=O)O [Valproate, valproic acid]",cell cycle arrest in glioma cell lines,glioma cell lines,induce cell cycle arrest
"C[C@@H]1C[C@H]1[C@H](C)C[C@@H](O)[C@@]1([C@H]2CC[C@H]3[C@@H]4CC[C@H]5CC(=O)CC[C@]5(C)[C@H]4C[C@@H](O)[C@]23C)CO1 [YTA0040, Aragusterol A]",cell cycle arrest of human cancer cells,human cancer cells,arrested human cancer cells cycle in the G1 phase
CN1CC[C@H](c2c(O)cc(O)c3c(=O)cc(-c4ccccc4Cl)oc23)[C@H](O)C1 [flavopiridol],excitotoxic neuronal death,neuronal death,blocks
C=C(C)[C@H]1CN[C@H](C(=O)O)[C@H]1CC(=O)O [kainic acid],cyclin D1 expression,cyclin D1,upregulates
CN(Cc1cnc2nc(N)nc(N)c2n1)c1ccc(C(=O)N[C@@H](CCC(=O)O)C(=O)O)cc1 [methotrexate],cognitive impairment associated with treatment,[2],learning disabilities
CC[C@H](CO)Nc1nc(NCc2ccccc2)c2ncn(C(C)C)c2n1 [roscovitine],cell cycle arrest,cell cycle,cell cycle arrest at the G1 phase
CCCC(=O)[O-].[Na+] [sodium butyrate],expression of late G1 phase genes such as cdc 2,cdc 2,inhibits
C=CC[C@@H]1/C=C(\C)C[C@H](C)C[C@H](OC)[C@H]2O[C@@](O)(C(=O)C(=O)N3CCCC[C@H]3C(=O)O[C@H](/C(C)=C/[C@@H]3CC[C@@H](O)[C@H](OC)C3)[C@H](C)[C@@H](O)CC1=O)[C@H](C)C[C@@H]2OC [tacrolimus],neurite outgrowth,PC12 cells,little effect
